Settings: human, in vivo
Experimental: The 40 patients were randomly allocated to four groups at a ratio of 1:1:1:1. […] The detection linear range was as below: • Compound I: Lower Limit Of Quantitation (LLOQ): 1.00 ng/mL; Upper Limit Of Quantitation (ULOQ): 1,000 ng/mL • Rabeprazole sodium: LLOQ: 2.00 ng/mL; […] […] Pharmacokinetics Evaluation Plasma drug concentrations of various groups at different time points were determined, including: arithmetic mean, standard deviation, minimum, median, maximum, geometric mean, coefficient of variation, and coefficient of geometric variation. The pharmacokinetic parameters calculated from the first and last administration were descriptively analyzed according to various trial groups, including: arithmetic mean, standard deviation, minimum value, median, maximum value, geometric mean, coefficient of variation, geometric coefficient of variation, etc. In addition, the accumulation index AUC0-tau, ss(D15)/AUC0-tau (D1) was calculated. […]

Effect of rabeprazole and amoxicillin on the pharmacokinetic profile of Compound I: no significant effect
SMILES: CO[C@H]1/C=C/O[C@@]2(C)Oc3c(C)c(O)c4c(c3C2=O)C2=NC3(CCN(CCn5c([N+](=O)[O-])cnc5C)CC3)NC2=C(NC(=O)/C(C)=C\C=C\[C@H](C)[C@H](O)[C@@H](C)[C@@H](O)[C@@H](C)[C@H](OC(C)=O)[C@@H]1C)C4=O [Compound I, 4-Deoxy-3,4-[2-spiro-[1-[2-(2-methyl-5-nitro-imidazol-1-yl)ethyl]-piperidin-4-yl]]-(1H)-imidazo-(2,5-dihydro)rifamycin]

Reference: patent publication US12005050B2, “Methods for preventing or treating H. pylori infection” (TENNOR THERAPEUTICS (SUZHOU) LIMITED, priority 2022, dated 2024)
